Test results: the RepoRT retention time repository (doi:10.1021/acs.analchem.1c00972)

Experiments:
[1] = RP, Waters ACQUITY UPLC BEH C18, 100 × 1 mm, 1.7 µm, 50 °C, 0.3 mL/min, estimated dead time 0.17 min; A: water + 10 mM ammonium bicarbonate; B: 10% water + 90% methanol + 10 mM ammonium bicarbonate; gradient (min/%B) 0/0 15/100 21/100 22/0 30/0; conditions: stereoisomer not certain
[2] = RP, Waters ACQUITY UPLC BEH C18, 100 × 1 mm, 1.7 µm, 50 °C, 0.3 mL/min, estimated dead time 0.17 min; A: water + 0.1% formic acid + 20 mM ammonium formate; B: methanol + 0.1% formic acid + 20 mM ammonium formate; gradient (min/%B) 0/0 15/100 21/100 22/0 30/0; conditions: stereoisomer not certain

LC retention time [1]	LC retention time [2]	Structure (SMILES)
14.8 min	9.81 min	COc1ccc2c(c1OC)C(=O)OC2C1c2c(cc3c(c2OC)OCO3)CCN1C (stereo unspecified) [Noscapin]
18.2 min	17.8 min	CCCCC(CC)COC(=O)C(C#N)=C(c1ccccc1)c1ccccc1 (stereo unspecified) [Octocrylene]
9.6 min	8.04 min	CC1COc2c(N3CCN(C)CC3)c(F)cc3c(=O)c(C(=O)O)cn1c23 (stereo unspecified) [Ofloxacin]
10.6 min	10.9 min	CCCc1nc(C(C)(C)O)c(C(=O)O)n1Cc1ccc(-c2ccccc2-c2nn[nH]n2)cc1 [Olmesartan]
12.4 min	9.64 min	Cc1nccn1CC1CCc2c(c3ccccc3n2C)C1=O (stereo unspecified) [Ondansetron]
16.3 min	15.9 min	CCN(CC)C(=O)SCc1ccccc1Cl [Orbencarb]
11.6 min	12.7 min	Cc1onc(-c2ccccc2)c1C(=O)NC1C(=O)N2C1SC(C)(C)C2C(=O)O (stereo unspecified) [Oxacillin]
17.2 min	13.6 min	CCN(CC)CC#CCOC(=O)C(O)(c1ccccc1)C1CCCCC1 (stereo unspecified) [Oxybutynin]
14.6 min	14.4 min	CC(C)(C)C(O)C(Cc1ccc(Cl)cc1)n1cncn1 (stereo unspecified) [Paclubutrazole]
13.5 min	13.2 min	CC1CC2C3CC(F)C4=CC(=O)C=CC4(C)C3C(O)CC2(C)C1(O)C(=O)CO (stereo unspecified) [Paramethasone]
15 min	12.8 min	Fc1ccc(C2CCNCC2COc2ccc3c(c2)OCO3)cc1 (stereo unspecified) [Paroxetine]
13.1 min	12.8 min	C=C1C(=O)OC2C1CCC(C)=CCCC1(C)OC21 (stereo unspecified) [Parthenolid]
8.96 min	8.9 min	Cc1cc(=O)n(-c2ccccc2)n1C [Phenazone]
5.43 min	2.01 min	CNCC(O)c1cccc(O)c1 (stereo unspecified) [Phenylephrine]
8.77 min	4.92 min	CCC1C(=O)OCC1Cc1cncn1C (stereo unspecified) [Pilocarpine]
10.2 min	7.51 min	CC(C)NCC(O)COc1cccc2[nH]ccc12 (stereo unspecified) [Pindolol]
13.3 min	11.1 min	CCc1ccc(CCOc2ccc(CC3SC(=O)NC3=O)cc2)nc1 (stereo unspecified) [Pioglitazone]
14.5 min	9.31 min	NC(=O)C1(N2CCCCC2)CCN(CCCC(=O)c2ccc(F)cc2)CC1 [Pipamperone]

Structure (SMILES)	LC retention time [1]	LC retention time [2]
COC1CC(OC2CCC3(C)C(CCC4C3CCC3(C)C(C5=CC(=O)OC5)C(OC(C)=O)CC43O)C2)OC(C)C1O (stereo unspecified) [Oleandrin]	14.7 min	14.4 min
COCC(=O)N(c1c(C)cccc1C)N1CCOC1=O [Oxadixyl]	11.2 min	11 min
Cc1cc(C)nc(NC(=O)NS(=O)(=O)c2ccccc2C(=O)OC2COC2)n1 [Oxasulfuron]	9.07 min	11.3 min
O=C1Nc2ccc(Cl)cc2C(c2ccccc2)=NC1O (stereo unspecified) [Oxazepam]	13.5 min	13.2 min
COc1ccc(Cc2nccc3cc(OC)c(OC)cc23)cc1OC [Papaverin]	13.3 min	9.77 min
CC(=O)CCCCn1c(=O)c2c(ncn2C)n(C)c1=O [Pentoxifylline]	9.98 min	9.87 min
CC(=O)c1cc2c(cc1C)C(C)(C)C(C)C2(C)C (stereo unspecified) [Phantolide]	17.9 min	17.5 min
CCOP(=S)(OCC)ON=C(C#N)c1ccccc1 [Phoxim]	14.4 min	15.9 min
Nc1c(Cl)c(Cl)nc(C(=O)O)c1Cl [Picloram]	4.43 min	7.28 min
C=C(C)C1C2OC(=O)C1C1(O)CC3OC34C(=O)OC2C14C (stereo unspecified) [Picrotoxinin]	9.36 min	9.25 min
